We go through five compounds from patent US20030186816A1, “Herbicide combinations comprising specific sulfonylureas” (Bayer CropScience GmbH, priority 2002, published 2003).

Each structure is given as a SMILES string.

What all share (assay type): in vivo
One series concerns Avena ludoviciana. As to the kind of experiment: Herbicidal action (outdoor trials). The note with it: 750 g of AS/ha, scored approx. 4-6 weeks after application. As to the method: (§1) Herbicidal Action (Outdoor Trials)
(§2) The seeds or rhizome pieces of typical harmful plants were planted and grown under natural outdoor conditions. After the harmful plants had emerged, they were treated, as a rule at the 2- to 4-leaf stage, with various dosages of the compositions according to the invention at a water application rate of 100 to 400 l/ha (converted).
(§3) After the treatment (approx. 4-6 weeks after application), the herbidical activity of the active compounds or active compound mixtures was scored visually by comparing the treated plots with the untreated control plots. Damage and development of all above-ground parts of the plants was recorded. Scoring was done on a percentage scale (100% action=all plants dead; 50% action=50% of the plants and green plant parts dead; 0% action=no discernible action=like control plot). The score figures of in each case 4 plots were averaged. The results are listed in the tables below, where the activity measured for the independent use of the active compounds (A+B) and C) is stated in brackets.

For another series, the system named is Wheat. The series is described as follows: Crop damage in outdoor trials. The note with it: 750 g of AS/ha, scored approx. 4-6 weeks after application, trial with Avena ludoviciana. On the procedure: as §1, §2, §3
A further series concerns Papaver rhoeas. The series is described as follows: Herbicidal action (outdoor trials). Particulars: scored approx. 4-6 weeks after application. On the procedure:
as §1, §2, §3

In a further series the test system is Winter wheat. The series is described as follows: Crop damage in outdoor trials. As to the method: as §1, §2, §3
The next series deals with Veronic pericaria. As to the kind of experiment: Herbicidal action (outdoor trials). Particulars: 150 g of AS/ha, scored approx. 4-6 weeks after application. On the procedure: as §1, §2, §3
The subject of the next series is Brassica naupus. The series is described as follows: Herbicidal action (outdoor trials). The note with it: 30 g of AS/ha, scored approx. 4-6 weeks after application. On the procedure: as §1, §2, §3
Another series deals with Polygonum convolvulus. As to the kind of experiment: Herbicidal action (outdoor trials). The note with it: 30 g of AS/ha, scored approx. 4-6 weeks after application. As to the method:
as §1, §2, §3

The next series concerns Aspera spica venti. The series is described as follows: Herbicidal action (outdoor trials). The note with it: 30 g of AS/ha, scored approx. 4-6 weeks after application. On the procedure:
as §1, §2, §3

A further series relates to Physalis spp. As to the kind of experiment: Herbicidal action (outdoor trials). The note with it: 30 g of AS/ha, scored approx. 4-6 weeks after application. As to the method:
as §1, §2, §3

A further series deals with Summer wheat. The series is described as follows: Crop damage in outdoor trials. Particulars: 30 g of AS/ha, scored approx. 4-6 weeks after application. On the procedure: as §1, §2, §3

As to `Cc1cc(Cl)ccc1OCC(=O)O` [C), (4-chloro-2-methylphenoxy)acetic acid], the “Avena ludoviciana % activity” value with Avena ludoviciana is reported as 0%. Further, the “Wheat wheat % damage” value in the series with Wheat was 0%.
For `COc1nc(C)nc(NC(=O)NS(=O)(=O)c2ccccc2OCCCl)n1` [D), 1-[2-(2-chloroethoxy)phenylsulfonyl]-3-(4-methoxy-6-methyl-1,3,5-triazin-2-yl)urea], in the series on Papaver rhoeas (15 g of AS/ha), the “Papaver rhoeas % activity” value is 65%. In addition, in the series on Winter wheat (15 g of AS/ha, outdoor, scored approx. 4-6 weeks after application, trial with Papaver rhoeas), the “Winter wheat % damage” value is on record as 0%.
Turning to `N#Cc1cc(Br)c(O)c(Br)c1` [E), 3,5-dibromo-4-hydroxy-benzonitrile], the “Papaver rhoeas % activity” value with Papaver rhoeas (240 g of AS/ha) came to 85%. In addition, in the series with Winter wheat (240 g of AS/ha, outdoor, scored approx. 4-6 weeks after application, trial with Papaver rhoeas), the “Winter wheat % damage” value is recorded as 0%.
Take `Nc1c(Cl)c(F)nc(OCC(=O)O)c1Cl` [I), 4-amino-3,5-dichloro-6-fluoro-2-pyridyloxy acetic acid]: in the series on Veronic pericaria, the “Veronic pericaria % activity” value is given as 50%. For the same compound, in the series on Winter wheat (in vivo), the “Winter wheat % damage” value was determined as 1%.
With `CCOC(=O)[C@@H](C)Oc1ccc(Oc2nc3ccc(Cl)cc3o2)cc1` [J), fenoxaprop-P-ethyl], the “Brassica naupus % activity” value with Brassica naupus is 0%. For the same compound, the “Polygonum convolvulus % activity” value in the series with Polygonum convolvulus is 0%. For the same compound, the “Aspera spica venti % activity” value with Aspera spica venti worked out at 25%. In addition, in the series with Physalis spp., the “Physalis spp. % activity” value was found to be 0%. In the series on Summer wheat, the “Summer wheat % damage” value is on record as 0%.
